# From US10689365B2, “Substituted 2-alkylimidazolylcarboxamides as pesticides” (Bayer CropScience Aktiengesellschaft, priority 2016, dated 2020)
# Like-named read-outs stand apart in the source and are kept apart here.
# Legend:
# Myzus persicae [1] = test: Myzus persicae - spray test (MYZUPE S), bell pepper plants; type: in vivo; conditions: 144 h, 6 dat, read-out: % efficacy
# Protocol: Myzus persicae—Spray Test (MYZUPE S)
# (§1) Solvent: 14 parts by weight of dimethylformamide
# (§2) Emulsifier: alkylaryl polyglycol ether
# (§3) To produce a suitable active compound preparation, 1 part by weight of active compound is dissolved with the specified parts by weight of solvent and made up with water containing an emulsifier concentration of 1000 ppm until the desired concentration is attained. To produce further test concentrations, the formulation is diluted with emulsifier-containing water. If the addition of ammonium salts or/and penetrants is required, these are each added in a concentration of 1000 ppm to the formulation solution.
# Bell pepper plants (Capsicum annuum) severely infested with the green peach aphid (Myzus persicae) are treated by spraying with the active ingredient formulation in the desired concentration.
# After the desired time, the kill in % is determined. 100% means that all the animals have been killed; 0% means that no animals have been killed.
# Aphis gossypii = Aphis gossypii - spray test (APHIGO S), cotton plants; type: in vivo; conditions: 144 h, 6 dat, read-out: % efficacy
# Protocol: Aphis gossypii—Spray Test (APHIGO S)
# as §1, §2
# as §3, with “dissolved using” for “dissolved with”, “the stated” for “the specified”
# Cotton plants (Gossypium hirsutum) heavily infested by the cotton aphid (Aphis gossypii) are sprayed with an active ingredient formulation of the desired concentration.
# After the desired time, the kill in % is determined. 100% means that all the aphids have been killed; 0% means that no aphids have been killed.
# Myzus persicae [2] = test: Myzus persicae - drench test (MYZUPE D), Savoy cabbage in soil; type: in vivo; conditions: 240 h, 10 dat, read-out: % efficacy
# Protocol: Myzus persicae—Drench Test (MYZUPE D)
# To produce a suitable active compound preparation, 1 part by weight of active compound is mixed with the specified amounts of solvent and emulsifier, and the concentrate is diluted with water to the desired concentration, it being necessary to include the volume of soil which is drenched in the calculation. It should be ensured that a concentration of 40 ppm of emulsifier in the soil is not exceeded. To produce further test concentrations, water is used for dilution.
# Savoy cabbage (Brassica oleracea) in pots with soil and infested by all stages of the green peach aphid (Myzus persicae) is watered with an active compound preparation of the desired concentration.
# (§4) After the desired period of time, the efficacy in % is determined. 100% means that all the aphids have been killed; 0% means that no aphids have been killed.
# Myzus persicae [3] = test: Myzus persicae - spray test (Chinese cabbage leaf discs); type: in vivo; conditions: Myzus persicae, foliar; application rate 500 g/ha, after 5-6 days; read-out: efficacy
# Outline: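 Chinese cabbage leaf discs carrying all aphid stages were sprayed with compound dissolved in acetone/dimethylformamide and diluted in water with 1000 ppm alkylaryl polyglycol ether emulsifier. Efficacy was recorded after 5-6 days as % aphids killed (100% = all, 0% = none).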
# Myzus persicae [4] = test: Myzus persicae - oral test; type: in vivo; conditions: Myzus persicae, po, 120 h; application rate 20 ppm, after 5 days; read-out: efficacy
# Outline: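 Aphid feeding test: compound dissolved in acetone, diluted with water and mixed with IPL41 insect medium plus sugar, offered through parafilm to a mixed population of green peach aphids. Mortality scored after 5 days as % efficacy (100% = all aphids dead, 0% = none dead).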
# Myzus persicae [5] = test: Myzus persicae - spray test (MYZUPE), Chinese cabbage leaf discs; type: in vivo; conditions: foliar, 120 h, 5 dat; for percent efficacy (aphid mortality) at 20 g/ha: 20 g of ai/ha; for percent efficacy (aphid mortality) at 100 g/ha: 100 g of ai/ha
# Protocol: Myzus persicae—Spray Test (MYZUPE)
# Solvent: 78.0 parts by weight of acetone • • 1.5 parts by weight of dimethylformamide
# as §2
# To produce a suitable active compound preparation, 1 part by weight of active compound is dissolved using the stated parts by weight of solvent and made up with water containing an emulsifier concentration of 1000 ppm until the desired concentration is attained. To produce further test concentrations, the formulation is diluted with emulsifier-containing water.
# Discs of Chinese cabbage leaves (Brassica pekinensis) infested by all stages of the green peach aphid (Myzus persicae) are sprayed with an active compound preparation of the desired concentration.
# as §4
# Myzus persicae [6] = test: Myzus persicae - oral test (MYZUPE O); type: in vivo; conditions: 120 h, 5 dat, read-out: % efficacy
# Protocol: Myzus persicae—Oral Test (MYZUPE O)
# Solvent: 100 parts by weight of acetone
# To produce a suitable preparation of active compound, 1 part by weight of active compound is dissolved using the specified parts by weight of solvent and made up with water until the desired concentration is attained.
# 50 μl of the active compound preparation are transferred into microtitre plates and made up to a final volume of 200 μl with 150 μl of IPL41 insect medium (33%+15% sugar). Subsequently, the plates are sealed with parafilm, which a mixed population of green peach aphids (Myzus persicae) within a second microtitre plate is able to puncture and imbibe the solution through it.
# as §4
# [7] = log P by HPLC on reversed-phase (C18) columns, OECD Guideline 117; type: physicochemical; conditions: reversed-phase (C18) HPLC column
# Outline: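 Reversed-phase C18 HPLC per OECD 117, LC-MS with a linear 10% to 95% acetonitrile gradient. Acidic method at pH 2.7 with 0.1% formic acid; neutral method at pH 7.8 with 0.001 M ammonium hydrogencarbonate.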
# [8] = acidic range, pH 2.7, 0.1% aqueous formic acid/acetonitrile, read-out: logP[a]
# [9] = neutral range, pH 7.8, aqueous ammonium hydrogencarbonate/acetonitrile, read-out: logP[n]
"chromatographic logP [7, 8]","chromatographic logP [7, 9]",SMILES,Emax at 0.16 ppm (Myzus persicae [1]),Emax at 0.8 ppm (Aphis gossypii; 0.8 ppm),Emax at 4 ppm (Aphis gossypii),Emax at 0.16 ppm (Myzus persicae [2]),pest or weed control at 500 g/ha (Myzus persicae [3]),pest or weed control at 20 ppm (Myzus persicae [4]),percent efficacy (aphid mortality) at 20 g/ha (Myzus persicae [5]),percent efficacy (aphid mortality) at 100 g/ha (Myzus persicae [5]),Emax at 4 ppm (Myzus persicae [6]),percent kill (mortality) of aphids at a fixed dose at 0.8 ppm (Aphis gossypii; 0.8 ppm)
0.96,1.57,CN(C(=O)c1cnc(CSCC2CC2)n1C)c1cccnc1 [Example I-1-35],100%,99%,100%,98%,100%,100%,90%,90%,100%,
1.05,1.26,CC(C)CS(=O)(=O)Cc1ncc(C(=O)N(C)c2cccnc2)n1C [Example I-1-32],98%,98%,97%,98%,90%,100%,,70%,100%,
0.75,1.03,CN(C(=O)c1cnc(CS(=O)(=O)C(C)(C)C)n1C)c1cccnc1 [Example I-1-34],45%,85%,95%,90%,100%,100%,90%,90%,100%,
1.68,2.34,CCN(C(=O)c1cnc(CSCC(C)(C)C)n1C)c1cccnc1 [Example I-1-54],99%,,95%,90%,90%,100%,90%,90%,100%,90%
